According to ChEMBL document CHEMBL5104202, “Structure-Uptake Relationship Studies of Oxazolidinones in Gram-Negative ESKAPE Pathogens” (J Med Chem, 2022):

Experiments:
Assay type in all cases: functional, organism-based
Escherichia coli [1] = assay: Antibacterial activity against recombinant OM pore producing Escherichia coli assessed as inhibition of bacterial growth
Acinetobacter baumannii [2] = assay: Antibacterial activity against efflux pump lacking/recombinant OM pore producing Acinetobacter baumannii assessed as inhibition of bacterial growth
Escherichia coli [3] = assay: Antibacterial activity against wild type Escherichia coli assessed as inhibition of bacterial growth
Acinetobacter baumannii [4] = assay: Antibacterial activity against efflux pump lacking Acinetobacter baumannii assessed as inhibition of bacterial growth
Acinetobacter baumannii [5] = assay: Antibacterial activity against recombinant OM pore producing Acinetobacter baumannii assessed as inhibition of bacterial growth
Escherichia coli [6] = assay: Antibacterial activity against efflux pump lacking/recombinant OM pore producing Escherichia coli assessed as inhibition of bacterial growth
Acinetobacter baumannii [7] = assay: Antibacterial activity against wild type Acinetobacter baumannii assessed as inhibition of bacterial growth
Pseudomonas aeruginosa [8] = assay: Antibacterial activity against efflux pump lacking/recombinant OM pore producing Pseudomonas aeruginosa assessed as inhibition of bacterial growth
Pseudomonas aeruginosa [9] = assay: Antibacterial activity against recombinant OM pore producing Pseudomonas aeruginosa assessed as inhibition of bacterial growth
Escherichia coli [10] = assay: Antibacterial activity against efflux pump lacking Escherichia coli assessed as inhibition of bacterial growth
Pseudomonas aeruginosa [11] = assay: Antibacterial activity against efflux pump lacking Pseudomonas aeruginosa assessed as inhibition of bacterial growth
Pseudomonas aeruginosa [12] = assay: Antibacterial activity against wild type Pseudomonas aeruginosa assessed as inhibition of bacterial growth

| SMILES | IC50 (Escherichia coli [1]) [µM] | IC50 (Acinetobacter baumannii [2]) [µM] | IC50 (Escherichia coli [3]) [µM] | IC50 (Acinetobacter baumannii [4]) [µM] | IC50 (Acinetobacter baumannii [5]) [µM] | IC50 (Escherichia coli [6]) [µM] | IC50 (Acinetobacter baumannii [7]) [µM] | IC50 (Pseudomonas aeruginosa [8]) [µM] | IC50 (Pseudomonas aeruginosa [9]) [µM] | IC50 (Escherichia coli [10]) [µM] | IC50 (Pseudomonas aeruginosa [11]) [µM] | IC50 (Pseudomonas aeruginosa [12]) [µM] |
| --- | --- | --- | --- | --- | --- | --- | --- | --- | --- | --- | --- | --- |
| Nc1cccc(C#Cc2ccc(N3C[C@H](CO)OC3=O)cc2F)n1 | 19.2 | 76.7 | 59 | 83.9 | 49.8 | 20.5 | > 100 | > 100 | > 100 | 34.2 | > 100 | > 100 |
| CC(C)(C)OC(=O)NC(CO)CC#Cc1ccc(N2C[C@H](CO)OC2=O)cc1F (stereo partly specified) | 97.3 | > 100 | > 100 | > 100 | > 100 | 67.8 | > 100 | > 100 | > 100 | 72.6 | > 100 | > 100 |
| C[n+]1cccc(-c2ccc(N3C[C@H](CO)OC3=O)cc2F)c1 | > 100 | > 100 | > 100 | > 100 | > 100 | 88.8 | > 100 | > 100 | > 100 | 70.6 | > 100 | > 100 |
| NC(=S)Nc1cccc(C#Cc2ccc(N3C[C@H](CO)OC3=O)cc2F)c1 | > 100 | > 100 | > 100 | > 100 | > 100 | 64.5 | > 100 | > 100 | > 100 | 85 | > 100 | > 100 |
| O=C1O[C@@H](CO)CN1c1ccc(C#Cc2cc(Cl)cc(Cl)c2)c(F)c1 | 12.8 | > 100 | 74.8 | > 100 | > 100 | 3.6 | > 100 | 16.2 | > 100 | 26.1 | 64.9 | > 100 |
| O=C1O[C@@H](CO)CN1c1ccc(-c2cc[n+](Cc3ccccc3)cc2)c(F)c1 | 23.3 | 13 | 51.6 | 23.4 | 15.6 | 15.6 | > 100 | 1.1 | 41.7 | 15.5 | 4.6 | > 100 |
| O=C(O)CCCC#Cc1ccc(N2C[C@H](CO)OC2=O)cc1F | > 100 | > 100 | > 100 | > 100 | > 100 | > 100 | > 100 | > 100 | > 100 | > 100 | > 100 | > 100 |
| CCOC(=O)C1CCN(CC#Cc2ccc(N3C[C@H](CO)OC3=O)cc2F)CC1 | > 100 | > 100 | > 100 | > 100 | > 100 | > 100 | > 100 | > 100 | > 100 | > 100 | > 100 | > 100 |
| O=C1O[C@@H](CO)CN1c1ccc(-c2ccc3ccncc3c2)c(F)c1 | > 100 | > 100 | > 100 | > 100 | > 100 | > 100 | > 100 | 0.1 | > 100 | > 100 | > 100 | > 100 |
| CC(C)[n+]1ccc(-c2ccc(N3C[C@H](CO)OC3=O)cc2F)cc1 | 42.8 | 22.3 | 81.6 | 34.5 | 22 | 16.6 | 89.5 | 36.6 | > 100 | 16.9 | 35.1 | > 100 |
| Cc1ccc(-c2ccc(N3C[C@H](CO)OC3=O)cc2F)cc1 | 3.2 | 1.6 | 28 | 2.3 | > 100 | 0.3 | > 100 | 3.8 | > 100 | 0.3 | 2.3 | > 100 |
| O=C1O[C@@H](CO)CN1c1ccc(-c2cccc(S(=O)(=O)C(F)(F)F)c2)c(F)c1 | 21.2 | 38.5 | > 100 | 48.8 | > 100 | 12.5 | > 100 | > 100 | > 100 | 19.3 | > 100 | > 100 |
| O=Cc1ccc(-c2ccc(N3C[C@H](CO)OC3=O)cc2F)cc1 | 5 | 1.2 | 66.8 | 1.1 | 16.9 | 0.5 | 18.4 | 0.02 | 5.9 | 0.6 | 1.1 | > 100 |
| CC(C(=O)NCC#Cc1ccc(N2C[C@H](CO)OC2=O)cc1F)N1CCNCC1 (stereo partly specified) | > 100 | > 100 | > 100 | > 100 | > 100 | > 100 | > 100 | > 100 | > 100 | > 100 | > 100 | > 100 |
| CSCC#Cc1ccc(N2C[C@H](CO)OC2=O)cc1F | 35.1 | > 100 | 94.9 | > 100 | > 100 | 47.8 | > 100 | > 100 | > 100 | 65.9 | > 100 | > 100 |
| O=C1O[C@@H](CO)CN1c1ccc(-c2ccc(SC(F)(F)F)cc2)c(F)c1 | 9.4 | 8.1 | 35.1 | 9.1 | 23.5 | 4.9 | 63.5 | 6.9 | > 100 | 6.9 | 78.2 | > 100 |
| CC(C)(C)OC(=O)NNC(=O)C(CC#Cc1ccc(N2C[C@H](CO)OC2=O)cc1F)NC(=O)OC(C)(C)C (stereo partly specified) | 51.4 | > 100 | > 100 | > 100 | > 100 | 56.1 | > 100 | > 100 | > 100 | 13.3 | > 100 | > 100 |
| N[C@@H](Cc1cccc(-c2ccc(N3C[C@H](CO)OC3=O)cc2F)c1)C(=O)O | > 100 | > 100 | > 100 | > 100 | > 100 | > 100 | > 100 | > 100 | > 100 | > 100 | > 100 | > 100 |
